According to US12059453B2, “Blood plasma fractions for use in muscle regeneration” (Alkahest, Inc., priority 2019, dated 2024):

System: C2C12 cells
Assay: IGF-1 versus PPF1 dose-response on glucose utilization, C2C12 cells in 2% horse serum
Type: cell-based
Conditions: treatment day 5, read day 6
Experimental: FIG. 16A and FIG. 16B report the effects of insulin-like growth factor-1 (IGF-1) on glucose utilization in C2C12 cells treated in 2% horse serum. Cells were plated in DMEM plus 4.5 g/L of glucose and 10% fetal bovine serum (FBS) at Day −2 (d−2). At Day 0 (d0) media was refreshed with DMEM plus 1 g/L glucose and 2% horse serum. At Day 5 (d5) various treatments were added with glucose utilization determined at Day 6 (d6). […] Recombinant human IGF1 was purchased from R&D Systems (Cat. 291-G1). […] IGF-1 is known to have an impact on metabolism of myotubes, and its presence in PPF1 has been calculated as approximately 14.88 ng/mL. […] Thus, other factors must necessarily be involved in the effects of PPF1.

- EC50, glucose utilization: 0.01743 µg/mL
Substance: recombinant human IGF-1: Recombinant human IGF1 purchased from R&D Systems (Cat. 291-G1)
